This is an account of results in patent US8735360B2 (priority 2009, dated 2014).

One series concerns female CD-1 mice. Type of series: in vivo. As to conditions: oral gavage, % distance travelled by charcoal front in small intestine.
The subject of series [1] is ligated duodenal loops in rats. The class given is in vivo, rat. As to conditions: 2.5 μg of peptide per loop.
In series [2] the target is T1, GC-C (Homo sapiens, UniProt P25092). The class given is cell-based. As to conditions: for Ratio EC50 pH 8/EC50 pH 5: cGMP response in T84 cells; for pH sensitivity with regard to binding and/or activation of GC-C: pH 5 versus pH 8.
Series [3] addresses T1, GC-C. Type of series: binding.
The conditions of series [4]: oral administration at therapeutic dose levels; cited from earlier work.

Positions of bridges follow the written chain, without caps; N, C: chain ends. Residues, ends and D or L forms follow the SMILES beside them.

T1 sequence (P25092 24-1073 limits assumed): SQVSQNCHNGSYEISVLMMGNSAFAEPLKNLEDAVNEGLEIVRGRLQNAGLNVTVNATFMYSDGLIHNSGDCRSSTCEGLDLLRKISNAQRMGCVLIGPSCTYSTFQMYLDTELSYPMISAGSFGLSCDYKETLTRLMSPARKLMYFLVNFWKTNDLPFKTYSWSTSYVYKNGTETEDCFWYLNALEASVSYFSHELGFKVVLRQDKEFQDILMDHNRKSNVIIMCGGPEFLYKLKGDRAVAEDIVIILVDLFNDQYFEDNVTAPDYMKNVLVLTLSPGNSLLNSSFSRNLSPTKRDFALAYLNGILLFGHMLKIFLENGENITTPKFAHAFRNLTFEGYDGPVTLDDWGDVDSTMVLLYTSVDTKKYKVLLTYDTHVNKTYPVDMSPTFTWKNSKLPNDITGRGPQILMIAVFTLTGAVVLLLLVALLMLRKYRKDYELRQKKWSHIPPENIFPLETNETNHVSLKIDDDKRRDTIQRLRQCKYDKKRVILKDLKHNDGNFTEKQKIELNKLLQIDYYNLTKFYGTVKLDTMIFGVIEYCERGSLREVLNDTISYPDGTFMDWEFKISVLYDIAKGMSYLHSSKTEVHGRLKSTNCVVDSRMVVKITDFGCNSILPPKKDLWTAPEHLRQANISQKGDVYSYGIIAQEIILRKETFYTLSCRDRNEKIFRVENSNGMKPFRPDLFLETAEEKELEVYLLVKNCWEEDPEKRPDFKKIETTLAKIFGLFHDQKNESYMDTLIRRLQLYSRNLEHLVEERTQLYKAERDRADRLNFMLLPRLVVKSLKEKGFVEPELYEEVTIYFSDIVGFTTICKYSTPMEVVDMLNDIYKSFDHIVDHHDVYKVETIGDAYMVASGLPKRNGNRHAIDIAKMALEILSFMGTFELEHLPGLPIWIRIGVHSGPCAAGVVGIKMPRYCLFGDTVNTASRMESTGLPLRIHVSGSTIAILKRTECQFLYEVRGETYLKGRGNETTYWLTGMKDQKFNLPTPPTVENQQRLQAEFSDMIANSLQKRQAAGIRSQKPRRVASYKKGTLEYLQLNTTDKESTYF

Turning to `C[C@@H]1NC(=O)[C@@H]2CCCN2C(=O)[C@H](CC(N)=O)NC(=O)[C@@H]2CSSC[C@H](N)C(=O)N[C@H]3CSSC[C@H](NC1=O)C(=O)N[C@@H]([C@@H](C)O)C(=O)NCC(=O)N[C@H](C(=O)N[C@@H](Cc1ccc(O)cc1)C(=O)O)CSSC[C@H](NC(=O)[C@H](Cc1ccccc1)NC(=O)[C@H](CCC(=O)O)NC3=O)C(=O)N2` [Peptide 2, CCEFCCNPACTGCY] (H-CCEFCCNPACTGCY-OH; disulfide 1-6, 2-10, 5-13), the “ED50 in the gastrointestinal transit assay” value (shortened to “ED50”) in the series on female CD-1 mice stood at 2.06 µg/kg. Also, in series [1], the “Rate of HCO3- accumulation” value was found to be 80 neq/min/cm and the “Rate of fluid accumulation” value worked out at 2.0 µL/min/cm. At GC-C [2], the “Ratio EC50 pH 8/EC50 pH 5” value stood at 13.2 and the “pH sensitivity with regard to binding and/or activation of GC-C” value is “little or no pH sensitivity”. Also, at GC-C [3], the “Ratio Ki pH 8/Ki pH 5” value is 0.97.

Turning to `CC(C)C[C@@H]1NC(=O)[C@H](CCC(=O)O)NC(=O)[C@@H]2CSSC[C@@H]3NC(=O)[C@H](C)NC(=O)[C@@H]4CCCN4C(=O)[C@H](CC(N)=O)NC(=O)[C@H](CSSC[C@H](N)C(=O)N2)NC(=O)[C@H](CSSC[C@@H](C(=O)N[C@@H](Cc2ccc(O)cc2)C(=O)O)NC(=O)CNC(=O)[C@H]([C@@H](C)O)NC3=O)NC1=O` [Peptide 1, CCELCCNPACTGCY] (H-CCELCCNPACTGCY-OH; disulfide 1-6, 2-10, 5-13 (inferred); N-terminus and C-terminus assumed), the “ED50” value with female CD-1 mice was 0.43 µg/kg. Also, in series [1], the “Rate of HCO3- accumulation” value stood at 80 neq/min/cm and the “Rate of fluid accumulation” value came to 2.0 µL/min/cm. At GC-C [2], the “Ratio EC50 pH 8/EC50 pH 5” value was determined as 8.5 and the “pH sensitivity with regard to binding and/or activation of GC-C” value is reported as “little or no pH sensitivity”. Further, the “Ratio Ki pH 8/Ki pH 5” value on GC-C [3] worked out at 0.69.

With `C[C@@H]1NC(=O)[C@@H]2CCCN2C(=O)[C@H](CC(N)=O)NC(=O)[C@@H]2CSSC[C@H](N)C(=O)N[C@H]3CSSC[C@H](NC1=O)C(=O)N[C@@H]([C@@H](C)O)C(=O)NCC(=O)N[C@H](C(=O)N[C@@H](Cc1ccc(O)cc1)C(=O)O)CSSC[C@H](NC(=O)[C@H](Cc1ccc(O)cc1)NC(=O)[C@H](CCC(=O)O)NC3=O)C(=O)N2` [linaclotide, Linaclotide] (H-CCEYCCNPACTGCY-OH; disulfide 1-6, 2-10, 5-13), the “Levels seen systemically after oral administration” value in series [4] is recorded as “no detectable levels”.

Take `C[C@@H]1NC(=O)[C@@H]2CCCN2C(=O)[C@H](CC(N)=O)NC(=O)[C@@H]2CSSC[C@H](NC(=O)[C@H](CC(=O)O)NC(=O)[C@@H](N)CC(=O)O)C(=O)N[C@H]3CSSC[C@H](NC1=O)C(=O)N[C@@H]([C@@H](C)O)C(=O)NCC(=O)N[C@H](C(=O)N[C@@H](Cc1ccc(O)cc1)C(=O)O)CSSC[C@H](NC(=O)[C@H](Cc1ccc(O)cc1)NC(=O)[C@H](CCC(=O)O)NC3=O)C(=O)N2` [Peptide 4, DDCCEYCCNPACTGCY] (H-DDCCEYCCNPACTGCY-OH; disulfide 3-8, 4-12, 7-15 (inferred); N-terminus and C-terminus assumed): in the series on female CD-1 mice, the “ED50” value was found to be 6.3 µg/kg. Moreover, in series [1], the “Rate of HCO3- accumulation” value is 80 neq/min/cm and the “Rate of fluid accumulation” value was determined as 2.0 µL/min/cm. The “Ratio EC50 pH 8/EC50 pH 5” value on GC-C [2] is reported as 48.0. For the same compound, the “Ratio Ki pH 8/Ki pH 5” value on GC-C [3] is reported as 5.27.

Regarding `CC(C)C[C@@H]1NC(=O)[C@H](CCC(=O)O)NC(=O)[C@@H]2CSSC[C@@H]3NC(=O)[C@H](C)NC(=O)[C@@H]4CCCN4C(=O)[C@H](CC(N)=O)NC(=O)[C@H](CSSC[C@H](NC(=O)[C@H](CC(=O)O)NC(=O)[C@H](CC(=O)O)NC(=O)[C@@H](N)CC(=O)O)C(=O)N2)NC(=O)[C@H](CSSC[C@@H](C(=O)N[C@@H](Cc2ccc(O)cc2)C(=O)O)NC(=O)CNC(=O)[C@H]([C@@H](C)O)NC3=O)NC1=O` [Peptide 17, DDDCCELCCNPACTGCY], the “ED50” value in the series on female CD-1 mice is 2.9 µg/kg. The “Rate of fluid accumulation” value in series [1] stood at 1.8 µL/min/cm. For the same compound, at GC-C [2], the “Ratio EC50 pH 8/EC50 pH 5” value amounted to 386.2. Further, the “Ratio Ki pH 8/Ki pH 5” value on GC-C [3] is reported as 6.35.
